Molecules are shown by their SMILES. pKi: −log10 of the molar value.

Our source for the Ki values is BindingDB's records for doi:10.1021/jm00384a019 (1987).

The experiment concerns the target DNA polymerase alpha (Cricetulus griseus). In words: Compound was evaluated for the concentration which gives half-maximal inhibition of Chinese Hamster Ovary DNA polymerase alpha.
Broadly, the pKi is −log10 of the Ki, conventionally taken in molar units. `CCCCc1ccc(Nc2nc(Cl)c3[nH]cnc3n2)cc1` [(4-Butyl-phenyl)-(6-chloro-9H-purin-2-yl)-amine] gave a negative-log Ki (pKi) of 5.59.
`CCCCc1ccc(Nc2nc(OC)c3[nH]cnc3n2)cc1` [(4-Butyl-phenyl)-(6-methoxy-9H-purin-2-yl)-amine] showed a negative-log Ki (pKi) of 5.85.
`CCCCc1ccc(Nc2nc(SC)c3[nH]cnc3n2)cc1` [(4-Butyl-phenyl)-(6-methylsulfanyl-9H-purin-2-yl)-amine] showed a negative logarithm of the Ki (pKi) of 6.00.
In turn, `CCCCc1ccc(Nc2ncc3[nH]cnc3n2)cc1` [(4-Butyl-phenyl)-(9H-purin-2-yl)-amine] gave a pKi of 5.30.
Take `CCCCc1ccc(Nc2nc(N)c3[nH]cnc3n2)cc1` [N*2*-(4-Butyl-phenyl)-9H-purine-2,6-diamine]: the pKi was 4.84.
